Source: patent USRE47351E1 (Gilead Sciences, Inc., priority 1999, dated 2019)
Like-named read-outs stand apart in the source and are kept apart here. One block for each molecule: values may come before it.

How the values were obtained:
A2A receptor = A2A receptor (Sus scrofa, UniProt K9IW67); assay: A2A receptor affinity in pig striatum membrane prep (tritiated ZM 241385 displacement); type: binding
Procedure: Compounds of this invention were assayed to determine their affinity for the A2A receptor in a pig striatum membrane prep. […]. To the pig membranes was added 2 μL of serially diluted DMSO stock solution of the compounds of this invention at concentrations ranging from 10 nM to 100 microM or the control received 2 microL of DMSO alone, then the antagonist ZM 241385 in Tris buffer (50 mM, pH of 7.4) was added to achieve a final concentration of 2 nM. After incubation at 23° C. for 2 h, then the solutions were filtered using a membrane harvester using multiple washing of the membranes (3×). The filter disks were counted in scintillation cocktail to determine the amount of displacement of tritiated ZM displaced by the compounds of this invention. Greater than a 5 point curve was used to generate Ki's and the number of experiments is indicated in the column marked in Table 1 below.

A2A adenosine receptor = A2A adenosine receptor (Rattus norvegicus (Rat), UniProt P30543); assay: Reversal time of coronary vasodilation in rat isolated perfused hearts; details: bolus injection
Sequence of A2A adenosine receptor (P30543 whole entry, the tested form may be a part): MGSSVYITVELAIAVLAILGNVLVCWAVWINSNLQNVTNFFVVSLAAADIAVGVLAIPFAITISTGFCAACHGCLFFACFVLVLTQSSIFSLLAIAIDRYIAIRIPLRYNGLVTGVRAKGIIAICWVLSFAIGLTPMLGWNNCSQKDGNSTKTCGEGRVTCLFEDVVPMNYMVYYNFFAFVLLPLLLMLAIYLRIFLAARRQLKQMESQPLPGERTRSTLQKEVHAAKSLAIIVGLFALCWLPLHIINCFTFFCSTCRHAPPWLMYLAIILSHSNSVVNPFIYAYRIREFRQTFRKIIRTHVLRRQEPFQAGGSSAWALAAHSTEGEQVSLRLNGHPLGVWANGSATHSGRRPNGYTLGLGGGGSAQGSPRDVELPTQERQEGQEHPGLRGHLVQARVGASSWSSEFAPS
Procedure: Adult Sprague Dawley rats of either sex weighing from 230 to 260 grams were used in this study. Animals were anesthetized by peritoneal injection of a cocktail containing ketamine and xylazine (ketamine 100 mg, xylazine 20 mg/ml). The chest was opened and the heart quickly removed. The heart was briefly rinsed in ice-cold Krebs-Henseleit solution (see below), and the aorta cannulated. […] The heart was electrically paced at a fixed cycle length of 340 ms (250 beats/min) using a bipolar electrode place on the left atrium. The electrical stimuli were generated by a Grass stimulator (Model S48, W. Warwick, R.I.) and delivered through a Stimuli Isolation Unit (Model SIU5, Astro-Med, Inc., N.Y.) as square-wave pulses of 3 msec in duration and amplitude of at least twice the threshold intensity.
Coronary perfusion pressure (CPP) was measured using a pressure transducer, connected to the aortic cannula via a T-connector positioned approximately 3 cm above the heart Coronary perfusion pressure was monitored throughout the experiment and recorded either on a chart recorder (Gould Recorder ^2200S) or a computerized recording system (PowerLab/4S, ADInstruments Pty Ltd, Australia). Only hearts with CPP ranging from 60 to 85 mmHg (in the absence of drugs) were used in the study.
Protocol A: Bolus injections. […] The times to 50% (t 0.5) and 90%/o (t 0.9) reversal of the decrease in CPP were measured. Each heart was exposed to a maximum of three vasodilators.
Protocol B: Continuous infusion. […] The times to 50% (t 0.5) and 90% (t 0.9) reversal of the decreases in CPP were measured from the time at which the infusion of the agonists was stopped. […] In addition, the duration of the injection was varied according to the volume of the boluses such as 10, 20 and 30 sec for 100, 200 and 300 μl boluses respectively. […] Boluses of various agonists were injected into the perfusion line of rat isolated perfused hearts (n=4 to 6 for each agonist) and the time to 90% (t0.9) reversal of the decrease in CPP measured.

A2A AdoR [1] = assay: Coronary blood flow and reversal time in open-chest anesthetized pigs
Procedure: Farm pigs weighing 22-27 kg were used in this study.
Anesthesia was anesthetized with ketamine (20 mg/kg, i.m.) and sodium pentobarbital (15-18 mg/kg i.v.). Anesthesia was maintained with additional sodium pentobarbital (1.5-2 mg/kg, i.v.) every 15-20 minutes. Ventilation was maintained via a tracheotomy using a mixture of room air and 100% O2. Tidal volume, respiratory rate and fraction of O2 in inspired air were adjusted to maintain normal arterial blood gas (ABG) and pH values. […] Lactate Ringers solution was administered via an ear or femoral vein, at 5-7 ml/kg/min after a initial bolus of 300-400 ml. A catheter was inserted into the femoral artery to monitor arterial blood pressure and to obtain ABG samples.
The heart was exposed through a median stemotomy, and suspended in a pericardial cradle. Left ventricular pressure (LVP) was measured with a 5F high fidelity pressure sensitive tip transducer (Millar Instrunents, Houston, Tex.) placed in the left ventricular cavity via the apex and secured with a purse string suture. A segment of the left anterior descending coronary artery (LAD), proximal to the origin of the first diagonal branch, was dissected free of, surrounding tissue. A transit time perivascular flow probe (Transonic Systems Inc., Ithaca, N.Y.) was placed around this segment to measure coronary blood flow (CBF). Proximal to the flow probe a 24 g modified angiocatheter was inserted for intracoronary infusions. […] A2A AdoR agonists were dissolved in DMSO to produce stock concentrations of 1-5 mM, which were diluted in 0.9% saline and infused at rates of 1-1.5 ml/min. The A2A AdoR agonists were administered intracoronary. To maintain blood pressure constant, phenylephrine was administered intravenously. The phenylephrine stock solution (30 mM) was prepared in distilled water.
Prior to initiating the experiment, a 30-minute stabilization period followed the completion of all instrumentation. […] The time to recovery of 50% (t 0.5) and 90% (t0.9) of baseline CBF were recorded. Ten to 15 minutes after CBF returned to pre-drug values a second infusion with a different agonist was started. […] The effect of a maximum of three different agonists was determined in each experiment.

A1 AdoR [2] = target: A1 AdoR (Rattus norvegicus (Rat), UniProt P25099); assay: A-V nodal conduction time (negative dromotropic effect) in rat isolated perfused hearts; details: Compound 16 0.1-30 μM, CVT510 100-400 nM
Sequence of A1 AdoR (Rattus norvegicus (Rat), UniProt P25099) (P25099 whole entry, the tested form may be a part): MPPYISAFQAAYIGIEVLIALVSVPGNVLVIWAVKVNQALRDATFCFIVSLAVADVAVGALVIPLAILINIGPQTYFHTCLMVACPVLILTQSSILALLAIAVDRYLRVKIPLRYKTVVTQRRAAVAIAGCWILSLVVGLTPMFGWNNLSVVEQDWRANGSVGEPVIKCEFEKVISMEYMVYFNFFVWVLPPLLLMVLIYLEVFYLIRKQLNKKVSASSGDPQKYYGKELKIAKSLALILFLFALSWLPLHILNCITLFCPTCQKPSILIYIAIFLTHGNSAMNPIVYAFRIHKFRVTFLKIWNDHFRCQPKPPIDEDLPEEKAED
Procedure: (§1) In experiments in which A1 adenosine receptor-mediated negative dromotropic effect was measured, atrial and ventricular surface electrograms were recorded during constant atrial pacing.
(§2) A1 adenosine receptor-mediated depression of A-V nodal conduction time (negative dromotropic effect) was measured. Atrial and ventricular surface electrograms in rats and His bundle electrogram in guinea pigs, were recorded during constant atrial pacing.
(§3) Hearts were instrumented for continuous recording of coronary perfusion pressure (A2A response) and atrioventricular (A-V) conduction time or S-H interval (A1 response).

human A1AdoR = human A1AdoR (Homo sapiens (Human), UniProt P30542); assay: Competition binding, [3H]DPCPX/[3H]CPX sites on CHO-hA1AdoR cell membranes; details: in presence of Gpp(NH)p 100 μM
Sequence of human A1AdoR (P30542 whole entry): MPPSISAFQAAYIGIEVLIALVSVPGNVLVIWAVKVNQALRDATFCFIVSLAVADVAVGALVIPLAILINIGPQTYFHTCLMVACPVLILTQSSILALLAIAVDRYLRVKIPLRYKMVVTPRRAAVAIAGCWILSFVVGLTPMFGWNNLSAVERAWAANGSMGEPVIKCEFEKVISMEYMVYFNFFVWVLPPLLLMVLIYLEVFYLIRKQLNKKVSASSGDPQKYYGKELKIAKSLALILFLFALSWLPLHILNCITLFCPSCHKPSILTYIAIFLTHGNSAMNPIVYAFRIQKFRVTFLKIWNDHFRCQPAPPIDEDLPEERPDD

A1 AdoR [3] = target: A1 AdoR (Cavia porcellus (Guinea pig), UniProt P47745)
Sequence of A1 AdoR (Cavia porcellus (Guinea pig), UniProt P47745) (P47745 whole entry): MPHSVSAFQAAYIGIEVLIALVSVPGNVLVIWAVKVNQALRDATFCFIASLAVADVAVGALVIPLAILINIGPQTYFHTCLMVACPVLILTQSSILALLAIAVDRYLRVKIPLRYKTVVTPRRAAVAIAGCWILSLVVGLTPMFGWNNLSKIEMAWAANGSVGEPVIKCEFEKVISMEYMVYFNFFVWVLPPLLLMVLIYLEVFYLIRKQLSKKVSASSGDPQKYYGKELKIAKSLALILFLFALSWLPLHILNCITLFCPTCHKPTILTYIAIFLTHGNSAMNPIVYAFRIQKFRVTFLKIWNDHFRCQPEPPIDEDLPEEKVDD
Procedure: as §1, §2, §3

human A2AAdoR = human A2AAdoR (Homo sapiens (Human), UniProt P29274); details: conclusion of Example 15
Sequence of human A2AAdoR (P29274 whole entry): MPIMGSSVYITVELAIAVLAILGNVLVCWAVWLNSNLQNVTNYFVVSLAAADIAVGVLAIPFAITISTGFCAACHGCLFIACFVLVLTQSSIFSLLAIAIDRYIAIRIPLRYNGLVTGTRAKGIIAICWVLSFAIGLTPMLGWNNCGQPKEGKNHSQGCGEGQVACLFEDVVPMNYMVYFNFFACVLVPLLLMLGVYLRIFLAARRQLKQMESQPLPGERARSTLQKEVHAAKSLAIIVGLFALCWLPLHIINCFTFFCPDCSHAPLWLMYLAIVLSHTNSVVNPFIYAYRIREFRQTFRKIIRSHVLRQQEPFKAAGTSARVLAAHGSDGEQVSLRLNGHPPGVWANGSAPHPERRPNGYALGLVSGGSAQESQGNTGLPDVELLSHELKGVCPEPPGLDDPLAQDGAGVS
Procedure: Adenosine deaminase was purchased from Boehringer Mannheim Biochemicals Indianapolis, Id., U.S.A). [^3H]ZM241385 (Lot No. 1) was purchased from Tocris Cookson Ltd (Langford, Bristol, UK).
At the end of incubation, bound and free radioligands were separated by filtration through Whatman GF/C glass fiber filters using a Brandel tissue harvester (Gaithersburg, Md.). Triplicate determinations were performed for each concentration of the competing agent.
The affinity ([…]) of various CVT compounds for the A1 and A2A adenosine receptor were determined by their potency to compete for [^3H]CPX (A1) or [^3H]ZM241385 (A2A) binding sites on membranes derived from CHO-hA1AdoR, PC12 or HEK-HA2AAdoR cells. […] The affinity of selected compounds for A2B and A3 receptors were assessed by their potencies to compete for [^3H] […] ABMECA (A3) binding sites on membranes derived from HEK-hA2BAdoR and CHO-hA3AdoR cells, respectively.

human A3AdoR = human A3AdoR (Homo sapiens (Human), UniProt P0DMS8); assay: Competition for [125I]ABMECA binding sites on CHO-hA3AdoR membranes; details: compound at 10 μM
Sequence of human A3AdoR (P0DMS8 whole entry): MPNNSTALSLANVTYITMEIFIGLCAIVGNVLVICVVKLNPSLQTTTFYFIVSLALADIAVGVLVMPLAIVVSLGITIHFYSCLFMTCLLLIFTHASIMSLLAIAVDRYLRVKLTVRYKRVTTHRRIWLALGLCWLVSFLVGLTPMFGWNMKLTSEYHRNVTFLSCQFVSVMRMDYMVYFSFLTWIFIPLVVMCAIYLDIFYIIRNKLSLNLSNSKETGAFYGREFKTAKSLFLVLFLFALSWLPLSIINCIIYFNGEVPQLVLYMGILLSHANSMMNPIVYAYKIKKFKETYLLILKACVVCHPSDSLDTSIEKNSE
Procedure: (§4) Cell culture and membrane preparation-PC12 cells were obtained from the American Type Culture Collection and grown in DMEM with 5% fetal bovine serum, 10% horse serum, 0.5 mmol/L L-glutamine, 100 U/mL penicillin, 0.1 mg/mL streptomycin, and 2.5 μg/mL amphotericin. HEK-293 cells stably expressing recombinant human A2BAdoRs (HEK-hA2BAdoR) were grown in DMEM supplemented with 10% fetal bovine serum and 0.5 mg/mL G-418. CHOK1 cells stably expressing the recombinant human A1AdoR (CHO-hA1AdoR) and A3AdoR (CHO-hA3AdoR) were grown as monolayers on 150-mm plastic culture dishes in Ham's F-12 media supplemented with 10% fetal bovine serum in the presence of 0.5 mg/mL G-418. Cells were cultured in an atmosphere of 5% CO2/95% air maintained at 37° C.
(§5) To make membranes, cells were detached from the culture plates into ice-cold 50 mmol/L Tris-HCl buffer (pH7.4). […] The protein concentration of membrane suspensions was determined using the Bradford method (Bio-Rad) with bovine serum as standards. […]
(§6) The affinity ([…]) of various CVT compounds for the A1 and A2A adenosine receptor were determined by their potency to compete for [^3H]CPX (A1) or [^3H]ZM241385 (A2A) binding sites on membranes derived from CHO-hA1AdoR, PC12 or HEK-HA2AAdoR cells. […] The affinity of selected compounds for A2B and A3 receptors were assessed by their potencies to compete for [^3H] […]

A2A AdoR [4] = target: A2A AdoR (Cavia porcellus (Guinea pig), UniProt P46616)
Sequence of A2A AdoR (Cavia porcellus (Guinea pig), UniProt P46616) (P46616 whole entry): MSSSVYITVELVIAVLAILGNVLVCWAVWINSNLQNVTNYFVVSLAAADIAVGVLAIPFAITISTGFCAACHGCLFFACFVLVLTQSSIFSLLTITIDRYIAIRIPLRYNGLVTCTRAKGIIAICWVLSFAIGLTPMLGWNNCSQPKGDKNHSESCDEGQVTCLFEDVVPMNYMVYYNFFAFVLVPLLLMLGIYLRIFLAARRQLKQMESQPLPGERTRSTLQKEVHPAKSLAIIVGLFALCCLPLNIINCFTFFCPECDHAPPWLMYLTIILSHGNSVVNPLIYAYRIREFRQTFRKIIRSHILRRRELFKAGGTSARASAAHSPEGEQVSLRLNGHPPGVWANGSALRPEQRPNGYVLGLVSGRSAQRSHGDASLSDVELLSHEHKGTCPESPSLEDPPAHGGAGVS
From the text: as §3

A2A AdoR [5] = target: A2A AdoR (Rattus norvegicus (Rat), UniProt P30543)
Sequence of A2A AdoR (Rattus norvegicus (Rat), UniProt P30543) (P30543 whole entry): as the sequence (P30543 whole entry, the tested form may be a part) above
From the text: as §3

human A2BAdoR = human A2BAdoR (Homo sapiens (Human), UniProt P29275); assay: Competition for [3H]CPX binding sites on HEK-hA2BAdoR membranes; details: compound at 10 μM
Sequence of human A2BAdoR (P29275 whole entry): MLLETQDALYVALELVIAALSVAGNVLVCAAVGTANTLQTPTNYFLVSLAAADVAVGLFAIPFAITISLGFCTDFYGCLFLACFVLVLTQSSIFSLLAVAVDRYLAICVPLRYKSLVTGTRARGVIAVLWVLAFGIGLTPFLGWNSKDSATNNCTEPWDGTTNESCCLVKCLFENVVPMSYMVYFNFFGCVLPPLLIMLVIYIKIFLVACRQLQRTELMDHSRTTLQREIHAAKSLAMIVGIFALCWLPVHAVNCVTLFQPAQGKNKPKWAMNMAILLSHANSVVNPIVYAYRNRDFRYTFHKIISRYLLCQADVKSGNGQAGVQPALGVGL
Procedure: as §4, §5, §6

[6] = pig striatal membranes, displacement of tritiated ZM 241385 (2 nM), 23° C. 2 h; read-out: A2a Ki

Sequence of A2A receptor (K9IW67 1-409): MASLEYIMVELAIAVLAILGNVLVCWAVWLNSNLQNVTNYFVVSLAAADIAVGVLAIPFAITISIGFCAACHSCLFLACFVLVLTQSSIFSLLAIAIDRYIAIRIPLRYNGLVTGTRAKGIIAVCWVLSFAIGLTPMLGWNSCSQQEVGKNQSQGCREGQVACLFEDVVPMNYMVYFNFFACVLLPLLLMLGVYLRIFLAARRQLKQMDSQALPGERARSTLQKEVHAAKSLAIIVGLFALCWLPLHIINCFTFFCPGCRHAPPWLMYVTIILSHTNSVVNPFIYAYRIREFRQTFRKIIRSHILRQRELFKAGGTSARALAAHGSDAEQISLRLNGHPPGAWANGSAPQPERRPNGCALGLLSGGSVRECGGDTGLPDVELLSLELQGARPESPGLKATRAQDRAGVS

SMILES: CCCCC#Cc1nc(N)c2ncn([C@@H]3O[C@H](C(=O)NCC)[C@@H](O)[C@H]3O)c2n1 [HENECA, N-ethyl-1′-deoxy-1′-(6-amino-2-hexynyl-9H-purin9-yl)-beta-D-ribofuranuronamide]
- t 0.5 (min), time to 50% reversal of the increase in coronary conductance (A2A adenosine receptor): 28.6 ± 1.1 min
- t 0.9 (min), time to 90% reversal of the increase in coronary conductance (A2A adenosine receptor): 32.8 ± 3.1 min

SMILES: Nc1nc(N/N=C/C2CCCCC2)nc2c1ncn2[C@@H]1O[C@H](CO)[C@@H](O)[C@H]1O [WRC-0470, 2-cyclohexylmethylidenehydrazino-adenosine]
- t 0.5 (min), time to 50% reversal of the increase in coronary blood flow (A2A AdoR [1]; 1 μg/kg/min): 9.5 ± 0.8 min
- t 0.9 (min), time to 90% reversal of the increase in coronary blood flow (A2A AdoR [1]; 1 μg/kg/min): 22.5 ± 1.6 min

SMILES: Nc1nc(-n2cc(C(=O)NC3CCCC3)cn2)nc2c1ncn2[C@@H]1O[C@H](CO)[C@@H](O)[C@H]1O [Compound 21, (1-{9-[(4S,2R,3R,5R)-3,4-dihydroxy-5-(hydroxymethyl)oxolan-2-yl]-6-aminopurin-2-yl}pyrazol-4-yl)-N-(cyclopentyl)carboxamide]
- Ki (A2A receptor; [6]): 10 to 1000 nM

SMILES: CCNC(=O)[C@H]1O[C@@H](n2cnc3c(N)nc(NCCc4ccc(CCC(=O)O)cc4)nc32)[C@H](O)[C@@H]1O [CGS21680]
- t 0.5 (min), time to 50% reversal of the increase in coronary blood flow (A2A AdoR [1]; 2 μg/kg/min): 9.7 ± 0.8 min
- t 0.9 (min), time to 90% reversal of the increase in coronary blood flow (A2A AdoR [1]; 2 μg/kg/min): 21.4 ± 0.8 min

SMILES: OC[C@H]1O[C@@H](n2cnc3c(N[C@@H]4CCOC4)ncnc32)[C@H](O)[C@@H]1O [CVT510, 2-{6-[((3R)oxolan-3-yl)amino]purin-9-yl}(4S,3R,5R)-(hydroxymethyl)oxolane-3,4-diol, reference compound]
- Effect on A-V nodal conduction time (A1 AdoR [2]): significantly prolonged

SMILES: CNC(=O)c1cnn(-c2nc(N)c3ncn(C4O[C@H](CO)[C@@H](O)[C@H]4O)c3n2)c1 (stereo partly drawn) [Compound 16, (1-{9-[(4S,2R,3R,5R)-3,4-dihydroxy-5-(bydroxymethyl)oxolan-2-yl]-6-aminopurin-2-yl}pyrazol-4-yl)-N-methylcarboxamide]
- Ki (human A1AdoR; read-out: Binding Affinity Ki, CHO-hA1AR): > 16500 nM
- Ki (human A1AdoR; read-out: Binding Affinity pKi ± SEM, CHO-hA1AR (converted)): 25700 nM
- EC50 (A1 AdoR [3]): 4000 ± 2300 nM
- A2A affinity in words (human A2AAdoR): low affinity A2A agonist
- Decrease of specific binding of [125I]IBMECA (CHO-hA3AdoR) (human A3AdoR): 22%
- Ki (A2A receptor; read-out: A2a Ki; pig striatal membranes, displacement of tritiated ZM 241385 (2 nM), 23° C. 2 h): 1000 to 10000 nM
- EC50 (A2A AdoR [4]): 18.6 ± 6 nM
- EC50 (A2A AdoR [5]): 6.4 ± 0.6 nM
- Decrease of specific binding of [3H]CPX (HEK-hA2BAdoR) (human A2BAdoR): 20%
- Effect on A-V nodal conduction time (A1 AdoR [2]): did not prolong

SMILES: CCCCCCC#Cc1nc(N)c2ncn([C@@H]3O[C@H](CO)[C@@H](O)[C@H]3O)c2n1 [YT-146, 2-alkynyladenosine]
- t 0.5 (min), time to 50% reversal of the increase in coronary blood flow (A2A AdoR [1]; 1 μg/kg/min): 17.8 ± 3.4 min
- t 0.9 (min), time to 90% reversal of the increase in coronary blood flow (A2A AdoR [1]; 1 μg/kg/min): 32.9 ± 5.6 min
- CBF (“Fold Increase”) (A2A AdoR [1]; 1 μg/kg/min intracoronary infusion): 3.44 ± 0.47 fold
- t 0.5 (min), time to 50% reversal of the increase in coronary conductance (A2A adenosine receptor): 17.7 ± 1.0 min
- t 0.9 (min), time to 90% reversal of the increase in coronary conductance (A2A adenosine receptor): 28.5 ± 4.0 min

Second part, the molecule after the results:

- Ki (A2A receptor; [6]): 1000 to 10000 nM
SMILES: Cc1ccc(-c2cnn(-c3nc(N)c4ncn(C5O[C@H](CO)[C@@H](O)[C@H]5O)c4n3)c2)cc1 (stereo partly drawn) [Compound 15]

- Ki (A2A receptor; [6]): > 100000 nM
SMILES: Nc1nc(-n2cc(C(=O)O)cn2)nc2c1ncn2[C@@H]1O[C@H](CO)[C@@H](O)[C@H]1O [Compound 17, 1-{9-[(4S,2R,3R,5R)-3,4-dihydroxy-5-(hydroxymethyl)oxolan-2-yl]-6-aminopurin-2-yl}pyrazole-4-carboxylic acid]

- Ki (A2A receptor; [6]): 10 to 1000 nM
SMILES: CN(C)C(=O)c1cnn(-c2nc(N)c3ncn([C@@H]4O[C@H](CO)[C@@H](O)[C@H]4O)c3n2)c1 [Compound 18, (1-{9-[(4S,2R,3R,5R)-3,4-dihydroxy-5-(hydroxymethyl)oxolan-2-yl]-6-aminopurin-2-yl}pyrazol-4-yl)-N,N-dimethylcarboxamide]

- Ki (A2A receptor; [6]): 10 to 1000 nM
SMILES: CCNC(=O)c1cnn(-c2nc(N)c3ncn(C4O[C@H](CO)[C@@H](O)[C@H]4O)c3n2)c1 (stereo partly drawn) [Compound 19, (1-{9-[(4S,2R,3R,5R)-3,4-dihydroxy-5-(hydrozymethyl)oxolan-2-yl]-6-aminopurin-2-yl}pyrazol-4-yl)-N-ethylcarboxamide]

- Ki (A2A receptor; [6]): 10 to 1000 nM
SMILES: NC(=O)c1cnn(-c2nc(N)c3ncn([C@@H]4O[C@H](CO)[C@@H](O)[C@H]4O)c3n2)c1 [Compound 20, 1-{9-[(4S,2R,3R,5R)-3,4-dihydroxy-5-(hydroxymethyl)oxolan-2-yl]-6-aminopurin-2-yl}pyrazole-4-carboxamide]

- Ki (A2A receptor; [6]): 10 to 1000 nM
SMILES: Nc1nc(-n2cc(C(=O)NCc3ccc(Cl)cc3)cn2)nc2c1ncn2[C@@H]1O[C@H](CO)[C@@H](O)[C@H]1O [Compound 22, (1-{9-[(4S,2R,3R,5R)-3,4-dihydroxy-5-(hydroxymethyl)oxolan-2-yl]-6-aminopurin-2yl}pyrazol-4yl)-N-[(4-chlorophenyl)methyl]carboxamide]

- Ki (A2A receptor; [6]): 1000 to 10000 nM
SMILES: COc1ccc(-c2cnn(-c3nc(N)c4ncn(C5O[C@H](CO)[C@@H](O)[C@H]5O)c4n3)c2)cc1 (stereo partly drawn) [Compound 14, (4S,2R,3R,5R)-2-{6-Amino-2-[4-(4-metboxyphenyl)pyrazolyl]purin-9-yl}-5-(hydroxymethyl)oxolane-3,4-diol]

- Ki (A2A receptor; [6]): 10 to 1000 nM
- t 0.5 (min), time to 50% reversal of the increase in coronary conductance (A2A adenosine receptor): 14.83 ± 2.1 min
- t 0.9 (min), time to 90% reversal of the increase in coronary conductance (A2A adenosine receptor): 15.0 ± 0.8 min
SMILES: CCOC(=O)c1cnn(-c2nc(N)c3ncn([C@@H]4O[C@H](CO)[C@@H](O)[C@H]4O)c3n2)c1 [Compound 12, Ethyl 1-{9-[(4S,2R,3R,5R)-3,4-dihydroxy-5-(hydroxymethyl)oxolan-2-yl]-6-aminopurin-2-yl}pyrazole-4-carboxylate]
